Test results published in patent publication US20140135357A1, “DOSE REGIME FOR CAMPTOTHECIN DERIVATIVES” (Taiwan Liposome Company, Ltd., priority 2012, published 2014).

Assay: Phase I clinical trial: pharmacokinetic analysis of TLC388HCl diastereomers and metabolites after IV infusion
[1] = Day 1, dose group 1.5 mg/m^2 TLC388HCl, Mean (SD)
[2] = Day 1, dose group 3.0 mg/m^2 TLC388HCl, Mean (SD)
[3] = Day 1, dose group 6.0 mg/m^2 TLC388HCl, Mean (SD)
[4] = Day 1, dose group 9.0 mg/m^2 TLC388HCl, Mean (SD)
[5] = Day 1, dose group 20.0 mg/m^2 TLC388HCl, Mean (SD)
[6] = Day 1, dose group 30.0 mg/m^2 TLC388HCl, Mean (SD)
[7] = Day 1, dose group 35.0 mg/m^2 TLC388HCl, Mean (SD)
[8] = Day 1, dose group 40.0 mg/m^2 TLC388HCl, Mean (SD)
[9] = Day 1, dose group 50.0 mg/m^2 TLC388HCl, Mean (SD)
[10] = Day 1, dose group 60.0 mg/m^2 TLC388HCl, Mean (SD)
[11] = Day 8, dose group 1.5 mg/m^2 TLC388HCl, Mean (SD)
[12] = Day 8, dose group 3.0 mg/m^2 TLC388HCl, Mean (SD)
[13] = Day 8, dose group 6.0 mg/m^2 TLC388HCl, Mean (SD)
[14] = Day 8, dose group 9.0 mg/m^2 TLC388HCl, Mean (SD)
[15] = Day 8, dose group 20.0 mg/m^2 TLC388HCl, Mean (SD)
[16] = Day 8, dose group 30.0 mg/m^2 TLC388HCl, Mean (SD)
[17] = Day 8, dose group 35.0 mg/m^2 TLC388HCl, Mean (SD)
[18] = Day 8, dose group 40.0 mg/m^2 TLC388HCl, Mean (SD)
[19] = Day 8, dose group 50.0 mg/m^2 TLC388HCl, Mean (SD)
[20] = Day 8, dose group 60.0 mg/m^2 TLC388HCl, Mean (SD)
[21] = patients treated with 60 mg/m^2 of TLC388HCl (N = 6)

CCC1(OC(=O)C(C)ON=C2c3cc([N+](=O)[O-])cc([N+](=O)[O-])c3-c3c2cc([N+](=O)[O-])cc3[N+](=O)[O-])C(=O)OCc2c1cc1n(c2=O)Cc2cc3c(CN(C)C)c(O)ccc3nc2-1.Cl (stereo not drawn) [S,R TLC388HCl]
difference between PK profiles on Day 1 and Day 8 (Cycle 1): no significant difference
AUC0-t [1]: 1.646 ng·h/mL
Cmax [1]: 3.188 ng/mL
Tmax [1]: 0.606 (0.106) hr
t1/2 [1]: 2.603 (3.591) hr
AUC0-t [2]: 4.728 ng·h/mL
Cmax [2]: 2.743 ng/mL
Tmax [2]: 0.933 (0.936) hr
AUC0-t [3]: 1.564 ng·h/mL
Cmax [3]: 4.073 ng/mL
Tmax [3]: 0.467 (0.209) hr
AUC0-t [4]: 0.821 ng·h/mL
Cmax [4]: 2.196 ng/mL
Tmax [4]: 0.354 (0.209) hr
t1/2 [4]: 0.197 (0.218) hr
AUC0-t [5]: 8.671 ng·h/mL
Cmax [5]: 29.303 ng/mL
Tmax [5]: 0.250 (0.000) hr
t1/2 [5]: 2.828 (4.510) hr
AUC0-t [6]: 3.624 ng·h/mL
Cmax [6]: 12.930 ng/mL
Tmax [6]: 0.396 (0.292) hr
t1/2 [6]: 0.258 (0.271) hr
AUC0-t [7]: 138.61 ng·h/mL
Cmax [7]: 263.58 ng/mL
Tmax [7]: 0.709 (0.083) hr
t1/2 [7]: 3.030 (1.537) hr
AUC0-t [8]: 10.818 ng·h/mL
Cmax [8]: 28.259 ng/mL
Tmax [8]: 0.415 (0.152) hr
t1/2 [8]: 0.460 (0.772) hr
AUC0-t [9]: 14.387 ng·h/mL
Cmax [9]: 43.180 ng/mL
Tmax [9]: 0.403 (0.143) hr
t1/2 [9]: 0.483 (0.334) hr
AUC0-t [10]: 11.285 ng·h/mL
Cmax [10]: 63.194 ng/mL
Tmax [10]: 0.357 (0.148) hr
t1/2 [10]: 0.639 (0.425) hr
AUC0-t [11]: 0.449 ng·h/mL
Cmax [11]: 0.916 ng/mL
Tmax [11]: 0.489 (0.215) hr
t1/2 [11]: 0.087 h
AUC0-t [12]: 0.574 ng·h/mL
Cmax [12]: 1.811 ng/mL
Tmax [12]: 0.350 (0.173) hr
t1/2 [12]: 0.050 (0.008) hr
AUC0-t [13]: 2.190 ng·h/mL
Cmax [13]: 8.287 ng/mL
Tmax [13]: 0.467 (0.209) hr
t1/2 [13]: 0.072 h
AUC0-t [14]: 5.396 ng·h/mL
Cmax [14]: 3.325 ng/mL
Tmax [14]: 2.408 (3.729) hr
t1/2 [14]: 0.133 (0.084) hr
AUC0-t [15]: 4.707 ng·h/mL
Cmax [15]: 15.753 ng/mL
Tmax [15]: 0.328 (0.135) hr
t1/2 [15]: 0.115 (0.064) hr
AUC0-t [16]: 18.892 ng·h/mL
Cmax [16]: 38.413 ng/mL
Tmax [16]: 0.512 (0.240) hr
t1/2 [16]: 0.202 (0.242) hr
AUC0-t [17]: 139.26 ng·h/mL
Cmax [17]: 403.60 ng/mL
Tmax [17]: 0.621 (0.141) hr
t1/2 [17]: 3.329 (2.590) hr
AUC0-t [18]: 34.254 ng·h/mL
Cmax [18]: 76.660 ng/mL
Tmax [18]: 0.303 (0.113) hr
t1/2 [18]: 0.411 (0.676) hr
AUC0-t [19]: 39.251 ng·h/mL
Cmax [19]: 97.288 ng/mL
Tmax [19]: 0.297 (0.104) hr
t1/2 [19]: 0.764 (1.045) hr
AUC0-t [20]: 13.377 ng·h/mL
Cmax [20]: 47.340 ng/mL
Tmax [20]: 0.450 (0.115) hr
t1/2 [20]: 1.416 (1.169) hr
Dose-normalized AUClast [21]: 0.82 ± 1.92 nM*h/(mg/m^2)
Dose-normalized Cmax [21]: 1.63 ± 3.77 nM/(mg/m^2)
Tmax [21]: 0.47 ± 0.30 h
t1/2 [21]: 1.08 ± 1.77 h
half-life (plasma, after IV administration of TLC388HCl composition): a few minutes
